According to patent US20070025976A1, “Process for the purification of coenzyme Q10” (Cargill, Inc., priority 2005, published 2007):

Assay: Solubility of pure CoQ10 in ethanol
Format: physicochemical
Method: The chromatography product from Example 8 is dissolved in 200 proof ethanol to create a 9 wt-% solution at 55° C. This should create a slightly sub-saturated solution. Table VI below provides solubility data for pure CoQ10 in ethanol.

Solubility (30 °C): 0.38 g/100 g Solvent | Solubility (50 °C): 8.99 g/100 g Solvent | Solubility (60 °C): 11.0 g/100 g Solvent
Structure (SMILES): COC1=C(OC)C(=O)C(C/C=C(\C)CC/C=C(\C)CC/C=C(\C)CC/C=C(\C)CC/C=C(\C)CC/C=C(\C)CC/C=C(\C)CC/C=C(\C)CC/C=C(\C)CCC=C(C)C)=C(C)C1=O [CoQ10, 2,3 dimethoxy-5 methyl-6 decaprenyl benzoquinone]
